Reference: ChEMBL document CHEMBL1201861, “Genomics of Drug Sensitity in Cancer screening data, Wellcome Trust Sanger Institute”

How the values were obtained:
Assay in all cases: cells
[1] = tested on: COLO-800; type: functional, cell-based, Homo sapiens; details: Homo sapiens, COLO-800;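 further: growth inhibition of COLO-800 cells, read out with a cell viability assay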
Description: SANGER: Inhibition of human COLO-800 cell growth in a cell viability assay.

[2] = tested on: COLO-824; type: functional, cell-based, Homo sapiens; details: Homo sapiens, COLO-824
Description: SANGER: Inhibition of human COLO-824 cell growth in a cell viability assay.

[3] = tested on: CTB-1; type: functional, cell-based, Homo sapiens; details: Homo sapiens, CTB-1
Description: SANGER: Inhibition of human CTB-1 cell growth in a cell viability assay.

[4] = tested on: CW-2; type: functional, cell-based, Homo sapiens; details: Homo sapiens, CW-2;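 further: growth inhibition of CW-2 cells, read out by a cell viability assay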
Description: SANGER: Inhibition of human CW-2 cell growth in a cell viability assay.

[5] = tested on: DB; type: functional, cell-based, Homo sapiens; details: Homo sapiens, DB
Description: SANGER: Inhibition of human DB cell growth in a cell viability assay.

[6] = tested on: DMS-114; type: functional, cell-based, Homo sapiens; details: Homo sapiens, DMS-114
[7] = tested on: DOHH-2; type: functional, cell-based, Homo sapiens; details: Homo sapiens, DOHH-2;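 further: growth inhibition of human DOHH-2 cells, read out with a cell viability assay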
Description: SANGER: Inhibition of human DOHH-2 cell growth in a cell viability assay.

[8] = tested on: EM-2; type: functional, cell-based, Homo sapiens; details: Homo sapiens, EM-2;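 further: growth inhibition of EM-2 cells, read out with a cell viability assay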
Description: SANGER: Inhibition of human EM-2 cell growth in a cell viability assay.

[9] = tested on: ES7; type: functional, cell-based, Homo sapiens; details: Homo sapiens, ES7;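 further: growth inhibition of cultured human ES7 cells, read out as cell viability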
Description: SANGER: Inhibition of human ES7 cell growth in a cell viability assay.

[10] = tested on: EW-1; type: functional, cell-based, Homo sapiens; details: Homo sapiens, EW-1;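 further: growth inhibition of the human EW-1 cell line, read out by a cell viability assay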
Description: SANGER: Inhibition of human EW-1 cell growth in a cell viability assay.

[11] = tested on: GI-1; type: functional, cell-based, Homo sapiens; details: Homo sapiens, GI-1;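 further: growth inhibition of human GI-1 cells, measured with a cell viability readout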
Description: SANGER: Inhibition of human GI-1 cell growth in a cell viability assay.

[12] = tested on: GOTO; type: functional, cell-based, Homo sapiens; details: Homo sapiens, GOTO;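 further: growth inhibition of GOTO cells, read out by a cell viability assay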
Description: SANGER: Inhibition of human GOTO cell growth in a cell viability assay.

[13] = tested on: GR-ST; type: functional, cell-based, Homo sapiens; details: Homo sapiens, GR-ST
Description: SANGER: Inhibition of human GR-ST cell growth in a cell viability assay.

[14] = tested on: HT; type: functional, cell-based, Homo sapiens; details: Homo sapiens, HT
Description: SANGER: Inhibition of human HT cell growth in a cell viability assay.

[15] = tested on: IST-MES1; type: functional, cell-based, Homo sapiens; details: Homo sapiens, IST-MES1;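 further: growth inhibition of IST-MES1 cells, measured with a cell viability assay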
Description: SANGER: Inhibition of human IST-MES1 cell growth in a cell viability assay.

[16] = tested on: K5; type: functional, cell-based, Homo sapiens; details: Homo sapiens, K5
Description: SANGER: Inhibition of human K5 cell growth in a cell viability assay.

[17] = tested on: KINGS-1; type: functional, cell-based, Homo sapiens; details: Homo sapiens, KINGS-1;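 further: cell viability assay measuring suppression of KINGS-1 cell growth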
Description: SANGER: Inhibition of human KINGS-1 cell growth in a cell viability assay.

[18] = tested on: KNS-81-FD; type: functional, cell-based, Homo sapiens; details: Homo sapiens, KNS-81-FD;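 further: growth inhibition of KNS-81-FD cells, read out with a cell viability assay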
Description: SANGER: Inhibition of human KNS-81-FD cell growth in a cell viability assay.

[19] = tested on: LB2518-MEL; type: functional, cell-based; details: Homo sapiens;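 further: growth inhibition of human LB2518-MEL cells, measured with a cell viability assay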
Description: SANGER: Inhibition of human LB2518-MEL cell growth in a cell viability assay.

[20] = tested on: ML-2; type: functional, cell-based, Homo sapiens; details: Homo sapiens, ML-2;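 further: growth inhibition of ML-2 cells, measured with a cell viability readout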
Description: SANGER: Inhibition of human ML-2 cell growth in a cell viability assay.

[21] = tested on: MOLT-16; type: functional, cell-based, Homo sapiens; details: Homo sapiens, MOLT-16;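 further: growth inhibition of human MOLT-16 cells, read out with a cell viability assay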
Description: SANGER: Inhibition of human MOLT-16 cell growth in a cell viability assay.

[22] = tested on: MSTO-211H; type: functional, cell-based, Homo sapiens; details: Homo sapiens, MSTO-211H
Description: SANGER: Inhibition of human MSTO-211H cell growth in a cell viability assay.

[23] = tested on: MZ1-PC; type: functional, cell-based, Homo sapiens; details: Homo sapiens, MZ1-PC;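 further: cell viability assay measuring growth inhibition of human MZ1-PC cells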
Description: SANGER: Inhibition of human MZ1-PC cell growth in a cell viability assay.

[24] = tested on: MZ2-MEL; type: functional, cell-based, Homo sapiens; details: Homo sapiens, MZ2-MEL;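 further: growth inhibition of MZ2-MEL cells read out with a cell viability assay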
Description: SANGER: Inhibition of human MZ2-MEL cell growth in a cell viability assay.

[25] = tested on: NB6; type: functional, cell-based, Homo sapiens; details: Homo sapiens, NB6;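 further: growth inhibition of NB6 cells, read out by a cell viability assay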
Description: SANGER: Inhibition of human NB6 cell growth in a cell viability assay.

[26] = tested on: NB69; type: functional, cell-based, Homo sapiens; details: Homo sapiens, NB69;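 further: growth inhibition of NB69 cells, determined by a cell viability assay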
Description: SANGER: Inhibition of human NB69 cell growth in a cell viability assay.

[27] = tested on: NCI-H1155; type: functional, cell-based, Homo sapiens; details: Homo sapiens, NCI-H1155;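 further: cell growth inhibition measured by a viability assay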
Description: SANGER: Inhibition of human NCI-H1155 cell growth in a cell viability assay.

[28] = tested on: NCI-H1299; type: functional, cell-based; details: Homo sapiens;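 further: growth inhibition of human NCI-H1299 cells, read out by a cell viability assay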
Description: SANGER: Inhibition of human NCI-H1299 cell growth in a cell viability assay.

[29] = tested on: NCI-H1581; type: functional, cell-based, Homo sapiens; details: Homo sapiens, NCI-H1581;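 further: cell growth inhibition read out by a viability assay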
Description: SANGER: Inhibition of human NCI-H1581 cell growth in a cell viability assay.

[30] = tested on: NCI-H1838; type: functional, cell-based, Homo sapiens; details: Homo sapiens, NCI-H1838;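 further: growth inhibition of NCI-H1838 cells, determined with a cell viability readout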
Description: SANGER: Inhibition of human NCI-H1838 cell growth in a cell viability assay.

[31] = tested on: NH-12; type: functional, cell-based, Homo sapiens; details: Homo sapiens, NH-12;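 further: growth inhibition of NH-12 cells, read out with a cell viability assay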
Description: SANGER: Inhibition of human NH-12 cell growth in a cell viability assay.

[32] = tested on: NMC-G1; type: functional, cell-based, Homo sapiens; details: Homo sapiens, NMC-G1;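 further: growth inhibition of the NMC-G1 cell line, measured with a cell viability read-out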
Description: SANGER: Inhibition of human NMC-G1 cell growth in a cell viability assay.

[33] = tested on: NOS-1; type: functional, cell-based, Homo sapiens; details: Homo sapiens, NOS-1;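 further: growth inhibition of the human NOS-1 cell line, read out with a cell viability assay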
Description: SANGER: Inhibition of human NOS-1 cell growth in a cell viability assay.

[34] = tested on: NTERA-2-cl-D1; type: functional, cell-based, Homo sapiens; details: Homo sapiens, NTERA-2-cl-D1;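 further: inhibition of cell growth, measured with a cell viability assay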
Description: SANGER: Inhibition of human NTERA-S-cl-D1 cell growth in a cell viability assay.

[35] = tested on: OCI-AML2; type: functional, cell-based, Homo sapiens; details: Homo sapiens, OCI-AML2;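 further: growth inhibition of OCI-AML2 cells, read out with a cell viability assay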
Description: SANGER: Inhibition of human OCI-AML2 cell growth in a cell viability assay.

[36] = tested on: ONS-76; type: functional, cell-based, Homo sapiens; details: Homo sapiens, ONS-76;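 further: growth inhibition of human ONS-76 cells, read out with a cell viability assay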
Description: SANGER: Inhibition of human ONS-76 cell growth in a cell viability assay.

[37] = tested on: RH-1; type: functional, cell-based, Homo sapiens; details: Homo sapiens, RH-1;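 further: growth inhibition of human RH-1 cells, read out with a cell viability assay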
Description: SANGER: Inhibition of human RH-1 cell growth in a cell viability assay.

[38] = tested on: Ramos-2G6-4C10; type: functional, cell-based, Homo sapiens; details: Homo sapiens, Ramos-2G6-4C10;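 further: growth inhibition of the cell line, measured by a cell viability read-out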
Description: SANGER: Inhibition of human Ramos-2G6-4C10 cell growth in a cell viability assay.

[39] = tested on: SBC-1; type: functional, cell-based, Homo sapiens; details: Homo sapiens, SBC-1;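 further: cell viability assay measuring growth inhibition of the SBC-1 cell line, IC50 being the concentration that halves growth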
Description: SANGER: Inhibition of human SBC-1 cell growth in a cell viability assay.

[40] = tested on: SF-268; type: functional, cell-based, Homo sapiens; details: Homo sapiens, SF-268;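 further: growth inhibition of SF-268 cells determined with a cell viability assay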
Description: SANGER: Inhibition of human SF268 cell growth in a cell viability assay.

[41] = tested on: SK-NEP-1; type: functional, cell-based, Homo sapiens; details: Homo sapiens, SK-NEP-1;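 further: growth inhibition of human SK-NEP-1 cells, read out by a cell viability assay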
Description: SANGER: Inhibition of human SK-NEP-1 cell growth in a cell viability assay.

[42] = tested on: A101D; type: functional, cell-based, Homo sapiens; details: Homo sapiens, A101D;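 further: growth inhibition of the cell line, measured with a viability assay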
Description: SANGER: Inhibition of human A101D cell growth in a cell viability assay.

[43] = tested on: BV-173; type: functional, cell-based, Homo sapiens; details: Homo sapiens, BV-173
Description: SANGER: Inhibition of human BV-173 cell growth in a cell viability assay.

[44] = tested on: TE-10; type: functional, cell-based, Homo sapiens; details: Homo sapiens, TE-10;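 further: growth inhibition of TE-10 cells, measured by a cell viability assay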
Description: SANGER: Inhibition of human TE-10 cell growth in a cell viability assay.

[45] = tested on: TE-6; type: functional, cell-based, Homo sapiens; details: Homo sapiens, TE-6;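 further: growth inhibition of TE-6 cells, read out with a cell viability assay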
Description: SANGER: Inhibition of human TE-6 cell growth in a cell viability assay.

[46] = tested on: TE-9; type: functional, cell-based, Homo sapiens; details: Homo sapiens, TE-9;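 further: cell growth inhibition, measured with a cell viability readout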
Description: SANGER: Inhibition of human TE-9 cell growth in a cell viability assay.

[47] = tested on: UACC-257; type: functional, cell-based, Homo sapiens; details: Homo sapiens, UACC-257
Description: SANGER: Inhibition of human UACC-257 cell growth in a cell viability assay.

[48] = tested on: no-11; type: functional, cell-based, Homo sapiens; details: Homo sapiens;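 further: growth inhibition of human NO-11 cells, read out with a cell viability assay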
Description: SANGER: Inhibition of human no-11 cell growth in a cell viability assay.

[49] = tested on: COLO-668; type: functional, cell-based, Homo sapiens; details: Homo sapiens, COLO-668
Description: SANGER: Inhibition of human COLO-668 cell growth in a cell viability assay.

SMILES: CN(NC(=O)CC(=O)NN(C)C(=S)c1ccccc1)C(=S)c1ccccc1 [ELESCLOMOL]
- IC50 [1]: 29.9 nM
- IC50 [2]: 71.8 nM
- IC50 [3]: 8.64 nM
- IC50 [4]: > 200 nM
- IC50 [5]: 141 nM
- IC50 [6]: 9.43 nM
- IC50 [7]: > 200 nM
- IC50 [8]: > 200 nM
- IC50 [9]: 3.59 nM
- IC50 [10]: 5.24 nM
- IC50 [11]: 8.26 nM
- IC50 [12]: 18.7 nM
- IC50 [13]: > 200 nM
- IC50 [14]: > 200 nM
- IC50 [15]: 54.1 nM
- IC50 [16]: 7 nM
- IC50 [17]: 177 nM
- IC50 [18]: 17.5 nM
- IC50 [19]: 66.9 nM
- IC50 [20]: > 200 nM
- IC50 [21]: 4.53 nM
- IC50 [22]: > 200 nM
- IC50 [23]: 144 nM
- IC50 [24]: > 200 nM
- IC50 [25]: 142 nM
- IC50 [26]: 1.22 nM
- IC50 [27]: 46.2 nM
- IC50 [28]: 18.5 nM
- IC50 [29]: 24.6 nM
- IC50 [30]: 184 nM
- IC50 [31]: 134 nM
- IC50 [32]: 20.4 nM
- IC50 [33]: < 0.781 nM
- IC50 [34]: 19.4 nM
- IC50 [35]: 136 nM
- IC50 [36]: 10.3 nM
- IC50 [37]: 58.2 nM
- IC50 [38]: 12 nM
- IC50 [39]: 35.1 nM
- IC50 [40]: 12.9 nM
- IC50 [41]: 76.1 nM
- IC50 [42]: 11.4 nM
- IC50 [43]: 5.39 nM
- IC50 [44]: > 200 nM
- IC50 [45]: 139 nM
- IC50 [46]: 117 nM
- IC50 [47]: 22 nM
- IC50 [48]: 23.3 nM
- IC50 [49]: > 200 nM
